From patent publication EP1373238B1, “ALKYLXANTHATES AND THEIR USE AS PESTICIDES” (priority 2001, dated 2002)
Values after ≈ are worked out from the molar mass of the structure shown. Like-named read-outs stand apart in the source and are kept apart here.

Key:
Format in all cases: in vivo
[1] = tested on: late third instar of Spodoptera litura; assay: Antifeedant activity, painted leaf disks of Ricinus cummunis; set-up: key to A.I (Anti-feedent index): percent protection of treated vs untreated leaf disks; conditions: for Concentration required for 50% leaf protection EC50 ±S.E: oral feeding, leaf disk
Experimental: (§1) The average mortality and growth inhibition data of experiments was subjected to IBM AT 386 computer analysis at our laboratory for calculating LC50, LD50, EC50, ED50,etc., and other statistical data. The software used was developed by Reddy et al., 1992.
Methodology for Antifeedant activity: Tobacco caterpillar, Spodoptera litura F., larvae will be reared on Ricinus cummunis L. leaves at 27°C and 65-70% R.H. Known area (cm^2) of leaf disks were painted with exact amount of pure compound (dissolved in acetone) and were dried at room temperature till the carrier solvent evaporated. For each concentration 5 to 6 replicates were prepared and experiments were conducted individually. Control disks were dipped in carrier solvent (acetone) alone. Third instar larvae weighing 200-250 mg are selected from stock culture, starved for 4 hr, and will be used individually for the assay of antifeedant activity. After 12 and 24 hours, leaf area meter was used to measure the consumed area of treated and untreated leaves. Based on the data the percent protection of individual compound was calculated. All these properties were compared with well-known antifeedant isolated from neem kemal 'Azadiractin'. Control and test larvae arc transferred on fresh leaves and'monitored till adult emergence to study the growth and behavioral aspects of the insect.

[2] = tested on: Helicoverpa armigera (Hubner); assay: Growth regulatory (IGR) activity, topical application
[3] = tested on: Brine shrimp, Artemia salina; assay: Brine shrimp bioassay (toxic activity); conditions: read-out: LC50 ± S.E.
Experimental: Brine shrimp (Artemiasalina) eggs were hatched in a shallow rectangular dish filled with artificial seawater, which was prepared with commercial salt mixture and double distilled water. A plastic divider with several 2-mm holes was clamped in the dish to make two unequal compartments. The eggs were sprinkled into the larger compartment that was darkened, while the smaller compartment was illuminated. After 48 hours the phototropic nauplii were collected by pipette from the lighted side, being separated by the divider from their shells.
Twenty shrimps were transferred to each sample vial and artificial seawater was added to make 5 ml. The nauplii can becounted macroscopically in the stem of the pipette against a lighted back ground. A drop of dry yeast suspension (3µg in5ml artificial seawater) was added as food to each vial (Meyer, et al., 1982). Survivors were counted with the aid of a 3 x magnifying glass, after 24 hours, and the percent mortality at each concentration and control was determined. The 24 hour counts were more useful. During control deaths, the data was corrected using Abbot's formula.
as §1

[4] = tested on: IV instar larvae of Aedes aegypti; assay: Larvicidal activity against mosquito larvae (WHO procedure, 24 hours exposure); conditions: read-out: LC50 ± S.E.
Experimental: To determine the efficacy of different analogues of Alkylxanthates against mosquito larvae, standard procedures as recommended by World Health Organization (1981) were followed with minor modifications. The desired concentration of the test solution was obtained by adding 1 ml of an appropriate stock solution to 249 ml of tap water in 500 ml beaker. Test solutions of different concentrations were prepared by diluting the stock solution in dechlorinated and filtered tap water followed by thorough mixing. Tween -80 [Poly (oxyethylene)n - sorbitan monooleate] was used as an emulsifier at the concentration of 0.002% (v/v) to the final test solution whenever required. Control solutions were prepared in tapwater using acetone or ethanol and Tween -80 (0.002%). To each of the -test concentrations, 25 late third or early fourth instar larvae which were acclimatized earlier were added. At least three replicates of each of the tests were made. Based on the results, five to ten suitable concentrations, which produced 10 to 100% mortality, were selected for detailed study and for calculating LC50 values. Mortality was observed 24 hours after exposing the larvaeto test solutions and the data was corrected for control mortality if any, by using Abbot's formula (Abbot 1925). All tests were carried out at a room temperature maintained at 28 ± 1°C.
as §1

[5] = IV instar larvae, mortality after 24 hours

| Compound | A.I (Anti-feedent index) ([1]; 10 µg/sq.cm.) | Percent leaf consumption 12 hr ([1]; 10 µg/sq.cm.) [%] | Percent leaf consumption 24 hr ([1]; 10 µg/sq.cm.) [%] | A.I (Anti-feedent index) ([1]; 15 µg/sq.cm.) | Percent leaf consumption 12 hr ([1]; 15 µg/sq.cm.) [%] | Percent leaf consumption 24 hr ([1]; 15 µg/sq.cm.) [%] | A.I (Anti-feedent index) ([1]; 20 µg/sq.cm.) | Percent leaf consumption 12 hr ([1]; 20 µg/sq.cm.) [%] | Percent leaf consumption 24 hr ([1]; 20 µg/sq.cm.) [%] | Concentration required for 50% leaf protection EC50 ±S.E [1] | LC50 ([3]; mortality after 24 hours) [µg/mL] | LC50 ([4]; iv, 24 h) [µg/mL] | A.I (Anti-feedent index) ([1]; 25 µg/sq.cm.) | Percent leaf consumption 12 hr ([1]; 25 µg/sq.cm.) [%] | Percent leaf consumption 24 hr ([1]; 25 µg/sq.cm.) [%] | LC50 [4, 5] [µg/mL] | other results |
| --- | --- | --- | --- | --- | --- | --- | --- | --- | --- | --- | --- | --- | --- | --- | --- | --- | --- |
| C/C=C(\C)C(=O)O[C@H]1C[C@@H](OC(C)=O)[C@@]2(C(=O)OC)CO[C@H]3[C@@H](O)[C@@](C)([C@]45O[C@@]4(C)[C@H]4C[C@@H]5O[C@@H]5OC=C[C@@]54O)[C@H]4[C@]1(CO[C@]4(O)C(=O)OC)[C@@H]32 [Azadiractin, reference compound] | 48.09 | 18.6 | 33.3 | 54.98 | 16.4 | 27.6 | 76.42 | 4.2 | 12.7 | 6.34±.77 µg/cm^2 | – | – | – | – | – | – | A.I (Anti-feedent index) ([1]; 5.0 µg/sq.cm.): 24.84; Percent leaf consumption 12 hr ([1]; 5.0 µg/sq.cm.): 33.7%; Percent leaf consumption 24 hr ([1]; 5.0 µg/sq.cm.): 57.2%; IGR activity, mode of action [2]: less larvicidal activity, minimized in the formation of normal pupae and emergence of normal adults |
| CC[C@@]1(O)C(=O)OCc2c1cc1n(c2=O)Cc2cc3ccccc3nc2-1 [Chamtothecin, reference compound] | – | – | – | – | – | – | – | – | – | – | – | – | – | – | – | – | LC50 ([3]; 24 h): 2.53 ± 0.43 µg/mL (≈ 7.26 µM) |
| S=C(OCC1CCCO1)SCSC(=S)OCC1CCCO1 (stereo not shown) [Compound 1, Methylene Bis(tetrahydrofurfurylxanthate)] | – | – | – | – | – | – | – | – | – | 37.21±9.67 µg/cm^2 | 5.63 ± 0.62 (≈ 15.3 µM) | 3.77 ± 0.59 (≈ 10.2 µM) | 22.42 | 31.5 | 60.2 | – | A.I (Anti-feedent index) ([1]; 12.5 µg/sq.cm.): 8.20; Percent leaf consumption 12 hr ([1]; 12.5 µg/sq.cm.): 48.6%; Percent leaf consumption 24 hr ([1]; 12.5 µg/sq.cm.): 80.6%; A.I (Anti-feedent index) ([1]; 35 µg/sq.cm.): 33.52; Percent leaf consumption 12 hr ([1]; 35 µg/sq.cm.): 25.9%; Percent leaf consumption 24 hr ([1]; 35 µg/sq.cm.): 47.3%; A.I (Anti-feedent index) ([1]; 50 µg/sq.cm.): 35.23; Percent leaf consumption 12 hr ([1]; 50 µg/sq.cm.): 22.1%; Percent leaf consumption 24 hr ([1]; 50 µg/sq.cm.): 45.5% |
| CCCCOC(=S)SCc1cccc(F)c1 [Compound 2, m-Fluorobenzyl (n-butylxanthate)] | – | – | – | – | – | – | – | – | – | – | 19 ± 2.83 (≈ 73.5 µM) | 12.5 ± 1.24 (≈ 48.5 µM) | – | – | – | – | – |
| CC(C)COC(=S)SCc1cccc(F)c1 [Compound 3, m-Fluorobenzyl (isobutylxanthate)] | 11.63 | 50.4 | 75.2 | 16.07 | 33.24 | 68.7 | 27.86 | 24.7 | 53.6 | 19.65±2.99 µg/cm^2 | 22.5 ± 3.26 (≈ 87.2 µM) | 11.8 ± 2.35 (≈ 45.6 µM) | 48.67 | 12.5 | 32.8 | – | – |
| CC(C)COC(=S)SCCSC(=S)OCC(C)C [Compound 4, Ethylene Bis (isobutylxanthate)] | – | – | – | – | – | – | – | – | – | – | 25.8 ± 2.9 (≈ 78.9 µM) | – | – | – | – | 8.06 ± 0.22 (≈ 24.7 µM) | – |
| CCCCOC(=S)SCSC(=S)OCCCC [Compound 5, Methylene Bis (n-butytxanthate)] | 5.50 | 48.5 | 85.1 | 22.27 | 35.2 | 60.4 | 35.14 | 22.5 | 45.6 | 17.11±1.36 µg/cm^2 | 34.6 ± 3.91 (≈ 111 µM) | – | 64.22 | 3.5 | 20.7 | 5.33 ± 0.97 (≈ 17.1 µM) | A.I (Anti-feedent index) ([1]; 30 µg/sq.cm.): 85.37; Percent leaf consumption 12 hr ([1]; 30 µg/sq.cm.): -0- %; Percent leaf consumption 24 hr ([1]; 30 µg/sq.cm.): 7.5% |
| CCCCOC(=S)SCc1ccc(CSC(=S)OCCCC)cc1 [Compound 12, p-Xylene Bis (n-butylcanthate)] | 2.59 | 57.3 | 90.2 | 5.97 | 62.4 | 84.3 | 24.51 | 35.2 | 57.6 | 20.45±1.76 µg/cm^2 | 45.2 ± 5.63 (≈ 112 µM) | – | 58.86 | 20.5 | 24.6 | 7.35 ± 0.51 (≈ 18.3 µM) | – |
